Source: PubChem BioAssay (NCI)
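Briefly, cells in 96-well plates were exposed to five compound concentrations for 48 h, and endpoints were estimated by linear interpolation. GI50 marks 50% less growth. The concentration for full growth arrest is given as TGI.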

What was measured:
Assay in all cases: NCI tumour cell line growth inhibition, 48 h
NCI/ADR-RES ovarian = tested on: NCI/ADR-RES ovarian
A549 NSCLC = tested on: A549 NSCLC
SF-295 CNS = tested on: SF-295 CNS
SN12C renal = tested on: SN12C renal
T-47D breast = tested on: T-47D breast
IGROV1 ovarian = tested on: IGROV1 ovarian
UACC-62 melanoma = tested on: UACC-62 melanoma
SNB-75 CNS = tested on: SNB-75 CNS
SW-620 colon = tested on: SW-620 colon
EKVX NSCLC = tested on: EKVX NSCLC

`CCN1CCN(c2ccc(NC(=O)Nc3nc4ccc(-c5ccccc5OC)cc4s3)cc2)CC1` showed a GI50 (NCI/ADR-RES ovarian) of 1.72 µM, a TGI (NCI/ADR-RES ovarian) of 3.35 µM and a GI50 (A549 NSCLC) of 1.98 µM. The TGI (A549 NSCLC) was 3.59 µM, the GI50 (SF-295 CNS) was 1.68 µM and the TGI (SF-295 CNS) was 3.09 µM. For the same compound, the GI50 (SN12C renal) was 1.77 µM, the TGI (SN12C renal) was 3.37 µM and the GI50 (T-47D breast) was 1.58 µM. The TGI (T-47D breast) was 3.61 µM, the GI50 (IGROV1 ovarian) was 1.87 µM and the TGI (IGROV1 ovarian) was 3.61 µM. For the same compound, the GI50 (UACC-62 melanoma) was 1.87 µM, the TGI (UACC-62 melanoma) was 3.45 µM and the GI50 (SNB-75 CNS) was 1.49 µM. For the same compound, the TGI (SNB-75 CNS) was 2.86 µM, the GI50 (SW-620 colon) was 1.94 µM and the TGI (SW-620 colon) was 3.55 µM. For the same compound, the GI50 (EKVX NSCLC) was 1.51 µM and the TGI (EKVX NSCLC) was 3.12 µM.
Work on `O=C1OC(OC/C(Br)=C(\Br)COC2OC(=O)C(Cl)=C2Cl)C(Cl)=C1Cl` (stereo not drawn) yielded a TGI (NCI/ADR-RES ovarian) of 25.2 µM, a TGI (A549 NSCLC) of 34.3 µM and a TGI (SF-295 CNS) of 34.7 µM. For the same compound, the TGI (SN12C renal) was 16.6 µM, the TGI (T-47D breast) was 34.6 µM and the TGI (IGROV1 ovarian) was 26.3 µM. For the same compound, the TGI (UACC-62 melanoma) was 16.9 µM, the TGI (SNB-75 CNS) was 39.4 µM and the TGI (SW-620 colon) was 9.9 µM. It also gave a TGI (EKVX NSCLC) of 22.8 µM.
`O=C(Nc1nc2c(C(F)(F)F)cccc2s1)c1cc(Cl)ccc1O` gave a GI50 (NCI/ADR-RES ovarian) of 0.311 µM, a TGI (NCI/ADR-RES ovarian) of 21.6 µM and a GI50 (A549 NSCLC) of 0.316 µM. For the same compound, the TGI (A549 NSCLC) was > 100 µM, the GI50 (SF-295 CNS) was 0.232 µM and the TGI (SF-295 CNS) was 0.707 µM. The GI50 (SN12C renal) was 0.289 µM, the TGI (SN12C renal) was 1.53 µM and the GI50 (T-47D breast) was 0.245 µM. For the same compound, the TGI (T-47D breast) was 0.783 µM, the GI50 (IGROV1 ovarian) was 0.511 µM and the TGI (IGROV1 ovarian) was 35 µM. It also gave a GI50 (UACC-62 melanoma) of 0.252 µM, a TGI (UACC-62 melanoma) of 0.957 µM and a GI50 (SNB-75 CNS) of 0.262 µM. It also gave a TGI (SNB-75 CNS) of 41.6 µM, a GI50 (SW-620 colon) of 0.364 µM and a TGI (SW-620 colon) of 16.3 µM. The GI50 (EKVX NSCLC) was 0.25 µM and the TGI (EKVX NSCLC) was 5.75 µM.
With `Cc1ccc(NC(=O)COc2ccc(Cl)cc2)cc1Cl` the TGI (NCI/ADR-RES ovarian) was > 100 µM, the TGI (A549 NSCLC) was > 100 µM and the TGI (SF-295 CNS) was > 100 µM. For the same compound, the TGI (SN12C renal) was > 100 µM, the TGI (T-47D breast) was > 100 µM and the TGI (IGROV1 ovarian) was > 100 µM. The TGI (UACC-62 melanoma) was > 100 µM, the TGI (SNB-75 CNS) was > 100 µM and the TGI (SW-620 colon) was > 100 µM. For the same compound, the TGI (EKVX NSCLC) was > 100 µM.
`Cn1nc(C(F)(F)F)cc1-c1cc(Cl)c(OCc2ccc(Cl)cc2)c(-c2ccc(Cl)c(C(F)(F)F)c2)c1O` was tested, and the GI50 (NCI/ADR-RES ovarian) was 1.35 µM, the TGI (NCI/ADR-RES ovarian) was 5.33 µM and the GI50 (A549 NSCLC) was 1.41 µM. It also gave a TGI (A549 NSCLC) of 5.6 µM, a GI50 (SF-295 CNS) of 0.997 µM and a TGI (SF-295 CNS) of 2.55 µM. The GI50 (SN12C renal) was 0.785 µM, the TGI (SN12C renal) was 4.58 µM and the GI50 (T-47D breast) was 0.435 µM. The TGI (T-47D breast) was 2.96 µM, the GI50 (IGROV1 ovarian) was 1.56 µM and the TGI (IGROV1 ovarian) was 6.42 µM. It also gave a GI50 (UACC-62 melanoma) of 0.91 µM, a TGI (UACC-62 melanoma) of 2.51 µM and a GI50 (SNB-75 CNS) of 0.984 µM. The TGI (SNB-75 CNS) was 2.68 µM, the GI50 (SW-620 colon) was 1.38 µM and the TGI (SW-620 colon) was 5.38 µM. The GI50 (EKVX NSCLC) was 1.21 µM and the TGI (EKVX NSCLC) was 5.41 µM.
`CC12CCC(C1)C(C)(C)C2OC(=O)c1ccccc1N` (stereo not drawn) gave a TGI (NCI/ADR-RES ovarian) of 31.7 µM, a TGI (A549 NSCLC) of 29.2 µM and a TGI (SF-295 CNS) of 35.6 µM. For the same compound, the TGI (SN12C renal) was 31.7 µM, the TGI (T-47D breast) was 32.1 µM and the TGI (IGROV1 ovarian) was 40.5 µM. It also gave a TGI (UACC-62 melanoma) of 29.2 µM, a TGI (SNB-75 CNS) of 35.1 µM and a TGI (SW-620 colon) of 29.6 µM. The TGI (EKVX NSCLC) was 30.2 µM.
`Cc1[nH]nc(C(F)(F)F)c1Cc1sc2c(c1C(=O)N1C[C@](C)(O)CO1)c(=O)n(C)c(=O)n2C(C)C` was tested, and the GI50 (NCI/ADR-RES ovarian) was > 100 µM, the TGI (NCI/ADR-RES ovarian) was > 100 µM and the GI50 (A549 NSCLC) was > 100 µM. The TGI (A549 NSCLC) was > 100 µM, the GI50 (SF-295 CNS) was > 100 µM and the TGI (SF-295 CNS) was > 100 µM. The GI50 (SN12C renal) was > 100 µM, the TGI (SN12C renal) was > 100 µM and the GI50 (T-47D breast) was > 100 µM. The TGI (T-47D breast) was > 100 µM, the GI50 (UACC-62 melanoma) was > 100 µM and the TGI (UACC-62 melanoma) was > 100 µM. For the same compound, the GI50 (SNB-75 CNS) was > 100 µM, the TGI (SNB-75 CNS) was > 100 µM and the GI50 (SW-620 colon) was > 100 µM. For the same compound, the TGI (SW-620 colon) was > 100 µM, the GI50 (EKVX NSCLC) was > 100 µM and the TGI (EKVX NSCLC) was > 100 µM.
Work on `CCC(=O)OCOc1ccc(/C=C2\CCC(CN(C)C)C2=O)cc1` (stereo not drawn) yielded a TGI (NCI/ADR-RES ovarian) of 6.78 µM, a TGI (A549 NSCLC) of 40.3 µM and a TGI (SF-295 CNS) of 20.5 µM. The TGI (SN12C renal) was 7.56 µM, the TGI (T-47D breast) was 9 µM and the TGI (IGROV1 ovarian) was 16.3 µM. For the same compound, the TGI (UACC-62 melanoma) was 13.6 µM, the TGI (SNB-75 CNS) was 27.6 µM and the TGI (SW-620 colon) was 7.38 µM. It also gave a TGI (EKVX NSCLC) of 37.9 µM.
